The conditions of data set [1]: exposed to air or at an elevated temperature; cited from earlier work.
The subject of data set [2] is animals. Conditions: ingesting cysteamine directly; cited from earlier work.
In data set [3] the test system is black & white dairy cows. The data set is described as follows: Experiment 3: three-stage feeding trial, black & white dairy cows. It is filed as in vivo. The settings on record: control group, 40 g per cow every other day, versus 20 g daily (2.89 vs 2.73 wt %). The source says:
Thirty-two black & white dairy cows were used in the experiment and were randomly divided into four groups, namely test Groups I to III, and a control group. Each group had eight cows. […] There were three stages in the experiment. In the first stage of the experiment, the feed for the test Groups I to III of cows was mixed with the composition such that each cow in the three test groups was fed with 20 g, 30 g and 40 g of the composition respectively daily. No cysteamine-containing composition was mixed in the feed for the control group of cows. The first stage of the experiment lasted for thirty-seven days and was preceded by a three-day adaptation period. During the second stage of the experiment, the composition was not added to the feed for the three test groups of cows. However, each cow in the control group was fed with 20 g of the composition daily via its feed. The second stage of the experiment lasted for seven days. During the third stage of the experiment, the three test groups of cows were fed with the feed mixed with the composition such that 20 g of the composition was taken by each cow daily. Each cow in the control group was fed with 40 g of the composition every other day via the feed. The third stage of the experiment lasted for seven days. The daily milk yield, milk fat content, milk protein content and somatic cells in milk were measured and recorded. […]

Data set [4] relates to somatostain (SS). Conditions: pigs, poultry, fowls, goats, rabbits and fish; cited from earlier work.

Take `NCCS` [cysteamine]: the oxidation entry in data set [1] is “readily oxidized”. Further, the gastro side effects entry in data set [2] was “will cause undesirable gastro side effects”. The “increase of milk protein content” value in data set [3] was 5.86%. The “effect on somatostain (SS)” value in data set [4] is “can deplete somatostain (SS)”.

The record behind these values is patent publication US20050027015A1 (priority 2001, published 2005).
